# Assay results as given in article PMC7116876, “Mechanistic Insights into Regulation of the ALC1 Remodeler by the Nucleosome Acidic Patch” (Cell reports, 2020).
# How the values were obtained:
# [1] = target: T1, WT/WT nucleosomes (acidic patch) (Xenopus laevis, UniProt P02281+P06897+P62799); assay: Competition fluorescence anisotropy with LANA-TAMRA pre-bound to WT/WT nucleosomes; format: binding, Xenopus laevis histones; conditions: LANA-TAMRA 10 nM, WT/WT nucleosomes 100 nM, varying unlabeled ALC1^RLS peptide, 30°C; n = 3 independent experiments
# T1 construct: made in house; host or cells: E. coli BL21 (DE3) pLysS
# Protocol: For binding studies, we used nucleosomes without linker DNA (WT/WT or APM/APM) as well as the following synthetic peptides (as detailed above): LANA peptide-TAMRA, ALC1^RLS peptide-TAMRA, and ALC1^RLS peptide. Fluorescence anisotropy measurements were carried out at 30°C using a CLARIOstar microplate reader (BMG Labtech). Binding curves were recorded in black low-volume 384-well assay plates (Corning). Individual wells contained 10 nM peptide and the indicated concentration of nucleosomes in 15 mM HEPES pH 7.5,1 mM EDTA, 5% glycerol, and 1 mM DTT. Dissociation constants were determined by fitting the fluorescence anisotropy data to the solution of a quadratic equation derived from the binding isotherm, which took into account depletion of peptide: r=αA+KD+B−A+KD+B^2−4AB , where r is the fluorescence anisotropy, A represents the total concentration of peptide, a is a scaling factor, KD is the dissociation constant, and B is the total concentration of titrated ligand. […]
# For fluorescence anisotropy binding experiments, the reported values represent the mean ± SEM from 3 independent experiments. […] For ensemble nucleosome remodeling time courses, each experimental condition was recorded in 3 independent experiments, and representative remodeling time courses are shown. […]
# [2] = system: ALC1-catalyzed remodeling of WT/WT nucleosomes; assay: Ensemble FRET nucleosome remodeling, WT/WT nucleosomes; format: biochemical, Homo sapiens ALC1; Xenopus laevis histones; conditions: WT/WT nucleosomes 10 nM preincubated with 80 μM LANA peptide 5 min room temperature; 80 nM ALC1^fl R860W (Fig 1C) or 80 nM ALC1^fl activated with PARP1/NAD+ (Fig S1C)
# Description: cDNAs for ALC1 and PARP1 were of Homo sapiens origin. Histone proteins (recombinantly expressed in E. coli) were of Xenopus laevis origin. Cell lines as well as growth conditions are described in the Method Details.
# Oligonucleotides used in this study were ordered from IDT (see Table S3). The ALC1^fl (16-879) construct contains the human ALC1 sequence and a 6xHis-tag, as previously published ([Lehmann et al., 2017]). All point mutations were generated by PCR-based site-directed mutagenesis. The plasmid for human PARP1 (1-1014) with an N-terminal 6xHis-tag was a kind gift from John M. Pascal ([Langelier et al., 2017]).
# The DNA constructs used in the nucleosome assembly for single-molecule and ensemble remodeling studies comprised the Widom 601 nucleosome positioning sequence ([Lowary and Widom, 1998]) as well as either 3 bp or 12 bp of linker DNA on one side and 78 bp on the other side (for the single-molecule remodeling construct) or 63 bp of linker DNA on one side and no linker DNA on the other side (for the ensemble remodeling construct). […] The DNA constructs for the assembly of nucleosomes used in fluorescence anisotropy experiments and ATPase assays comprised the Widom 601 positioning sequence without additional linker DNA (for the fluorescence anisotropy construct) or 63 bp of linker DNA on one side and no linker DNA on the other side (for the ATPase assay construct). […]
# [3] = system: APM/APM nucleosomes (H2A E61A, E64A, D90A, E92A); assay: Fluorescence anisotropy binding assay, APM/APM nucleosomes; parameters: species or system Xenopus laevis histones; conditions: 10 nM TAMRA-labeled peptide, 15 mM HEPES pH 7.5, 30°C, one representative curve of two independent experiments
# Description: The DNA constructs used in the nucleosome assembly for single-molecule and ensemble remodeling studies comprised the Widom 601 nucleosome positioning sequence ([Lowary and Widom, 1998]) as well as either 3 bp or 12 bp of linker DNA on one side and 78 bp on the other side (for the single-molecule remodeling construct) or 63 bp of linker DNA on one side and no linker DNA on the other side (for the ensemble remodeling construct). All constructs were 5’-labeled with Cy5 on the short linker end. The constructs for single-molecule experiments additionally featured a biotin on the long linker end. […] The DNA constructs for the assembly of nucleosomes used in fluorescence anisotropy experiments and ATPase assays comprised the Widom 601 positioning sequence without additional linker DNA (for the fluorescence anisotropy construct) or 63 bp of linker DNA on one side and no linker DNA on the other side (for the ATPase assay construct). […]
# For binding studies, we used nucleosomes without linker DNA (WT/WT or APM/APM) as well as the following synthetic peptides (as detailed above): LANA peptide-TAMRA, ALC1^RLS peptide-TAMRA, and ALC1^RLS peptide. Fluorescence anisotropy measurements were carried out at 30°C using a CLARIOstar microplate reader (BMG Labtech). Binding curves were recorded in black low-volume 384-well assay plates (Corning). […]
compound,measurement,setting,value
"EKASQEGRSLRNKGSVLIPGL [ALC1^RLS peptide, N-terminal regulatory linker segment (residues 604–624) of ALC1, unlabeled]",effect on fluorescence anisotropy of pre-formed LANA-TAMRA peptide-nucleosome complex,[1],caused a decrease in its fluorescence anisotropy in a dose-dependent manner
"MAPPGMRLRSGRSTGAPLTRGS [LANA peptide, peptide derived from the latency-associated nuclear antigen (LANA) of Kaposi's sarcoma-associated herpesvirus, reference compound]",effect on ALC1-catalyzed remodeling,[2],completely abrogated ALC1-catalyzed remodeling
CC[C@H](C)[C@H](NC(=O)[C@H](CC(C)C)NC(=O)[C@@H](NC(=O)[C@H](CO)NC(=O)CNC(=O)[C@H](CCCCN)NC(=O)[C@H](CC(N)=O)NC(=O)[C@H](CCCNC(=N)N)NC(=O)[C@H](CC(C)C)NC(=O)[C@H](CO)NC(=O)[C@H](CCCNC(=N)N)NC(=O)CNC(=O)[C@H](CCC(=O)O)NC(=O)[C@H](CCC(N)=O)NC(=O)[C@H](CO)NC(=O)[C@H](C)NC(=O)[C@H](CCCCN)NC(=O)[C@@H](N)CCC(=O)O)C(C)C)C(=O)N1CCC[C@H]1C(=O)NCC(=O)N[C@@H](CC(C)C)C(=O)N[C@@H](CCCCNC(=O)c1ccc2c(c1)C(=O)OC21c2ccc(N(C)C)cc2Oc2cc(N(C)C)ccc21)C(=O)O [ALC1^RLS-TAMRA],affinity for nucleosomes with AP mutations on both H2A/H2B dimers,[3],substantially reduced affinity
